Laboratory results: patent US20120034193A1, “TREATMENT OF NEUROTROPHIC FACTOR MEDIATED DISORDERS” (priority 2009, published 2012)

Columns and labels:
trkB mRNA = trkB mRNA expression in rat cortical neurones under basal conditions (rt RT-PCR); assay type: cell-based; details: 0.5 mM
Experimental: (§1) Rat cortical neurones were cultured by modification of a method previously described (Singer, et al., Neuroscience Letters, 1996, 212, pp. 13-16). Twelve days after the start of culturing, sarsasapogenin (30 nM), smilagenin (30 nM), 4-methylcatechol (0.5 mM), an inducer of NGF and BDNF release (Saporito et al., Experimental Neurology., 1993, 123, pp. 295-302; Nitta et al., Journal of Pharmacology and Experimental Therapeutics, 1999, 291, pp. 1276-1283) or vehicle (dimethyl sulfoxide, DMSO, 0.25%) were added for 1, 3 or 6 h. After incubation the total messenger ribonucleic acid (mRNA) was quantified using real time reverse transcription-polymerase chain reaction (rt RT-PCR).

BDNF mRNA = BDNF mRNA expression in rat cortical neurones under basal conditions (rt RT-PCR); assay type: cell-based; details: 0.5 mM
Experimental: as §1

C57b1/6 RJ mice = assay: Sciatic nerve crush model; assay type: in vivo, Mouse; details: 10 μg/kg/day i.p.; nerve crush alone 109.10 ± 2.65
Description: The sciatic nerve crush model is a well characterised reversible model for motor neurone disease and post-traumatic nerve injuries (McMahon and Priestley, Current Opinion in Neurobiology, 1995, 5, pp. 616-624). The nerve damage is produced by mechanical pressure using haemostatic forceps, applied twice, 5 mm proximal to the trifurcation of the right sciatic nerve of these mice. […] The loss of nerve function recovers progressively over a 4-5 week period after the mechanical insult.
4-Methylcatechol (10 μg/kg/day, i.p.) was used as a positive control (Kaechi et al., Journal of Phamacology and Experimental Therapeutics, 1995, 272, pp. 1300-1304).
C57b1/6 RJ mice were anaesthetised with ketamine chlorhydrate (60 mg/kg, i.p.). The sciatic nerve was surgically exposed at mid thigh level and crushed at 5 mm proximal to the trifurcation of the sciatic nerve. The nerve was crushed twice for 30 s with a haemostatic forceps with a 90-degree rotation between each crush. […] The loss of nerve function recovered progressively over a 4-5 week period after mechanical insult. Electromyographic recordings were assessed as described above.

pmn mice = details: literature; CNTF i.p. CNTF-secreting cells, Xaliproden oral from birth, CGP 3466B oral at onset; cited from earlier work
[1] = system: rat primary cortical neurones; assay: Inhibition of induced neurite outgrowth by K252a or PD98059; assay type: cell-based
Experimental: Cortical neurones were cultured as detailed above. Neurones were exposed to vehicle (DMSO, 0.25%) or K252a (100 nM) for 1 h. After 1 h, vehicle, sarsasapogenin, smilagenin (30 nM) or BDNF (1.85 nM) was added to the medium in the maintained presence of K252a. Following 24 h exposure to sarsasapogenin or smilagenin (30 nM), vehicle (DMSO, 0.25%) or BDNF (1.85 nM), the neurones were washed using phosphate-buffered saline (PBS) and fixed in glutaraldehyde (2.5%) in PBS. Photographs of 40-60 neurones expressing neurites were taken with a camera fixed on a microscope (objective ×20, Nikon). The neurite length was measured by an analysis of the photographs.
Cortical neurones were cultured as detailed above. Neurones were exposed to vehicle (DMSO, 0.25%) or PD98059 (10 μM) for 1 h. After 1 h, vehicle, smilagenin (30 nM) or BDNF (1.85 nM) was added to the medium in the maintained presence of PD98059. Following 24 h exposure to smilagenin (30 nM), vehicle (DMSO, 0.25%) or BDNF (1.85 nM), the neurones were washed using PBS and fixed in glutaraldehyde (2.5%) in PBS. Photographs of 40-60 neurones expressing neurites were taken with a camera fixed on a microscope (objective ×20, Nikon). The neurite length was measured by an analysis of the photographs.

[2] = system: rat primary cortical neurones; assay: Pre-treatment against glutamate-induced damage (LDH) in cortical neurones; assay type: cell-based; details: 24 h before and 24 h after glutamate 100 μM 10 min
Experimental: Exposure of rat primary cortical neurones to glutamate increases lactate dehydrogenase (LDH) activity measured 24 h after glutamate exposure, indicating significant neuronal damage. Rat cortical neurones were cultured by modification of a method previously described (Singer, et al., Neuroscience Letters, 1996, 212, pp. 13-16). On day 10 of culture, the medium was changed to a serum-free defined medium. On day 12, the cultures were washed and placed for 24 h in fresh medium containing test compound or vehicle (DMSO, 0.25%). On day 13 neurones were exposed to glutamate (100 μM; 10 min) at 37° C. The cultures were then washed with, and placed in, fresh medium supplemented with test compound or vehicle for a further 24 h before LDH was measured. Neuronal damage was assessed by measuring LDH activity in the media at 24 h after glutamate exposure.

Rat cortical neurones [3] = assay: Neuronal survival and neurite outgrowth of cortical neurones cultured in the absence of serum; assay type: cell-based; details: 3 nM, one day, no serum
Experimental: Rat cortical neurones were cultured following the method described above.
The test compounds were added for 24 h.
Rat cortical neurones were exposed to sarsasapogenin, smilagenin (30 nM) or vehicle (DMSO, 0.25%) in the absence FBS or FCS for one day. Cortical neurones were stained using a monoclonal antibody anti β-tubulin diluted and an anti mouse Immunoglobulin G diluted. These antibodies stained neurone cell bodies (quantifying the neuroprotective effect) and neurites (quantifying the neurotrophic effect). An epifluorecence microscope (magnification ×20) with a camera took 2 pictures per well (10 pictures per condition). Analyses of the number of cells labelled with anti β-tubulin antibodies and of the total number of cells was performed using LUCIA 6.0 software.

[4] = system: Rat spinal motor neurones; assay: Reversal of glutamate-induced damage in spinal motor neurones; assay type: cell-based; details: 3 nM for 48 h after glutamate 4 μM 10 min
Experimental: The rat spinal motor neurones were prepared as detailed above. On day 10, the medium was removed and the cultures exposed to glutamate (4 μM) for 10 min at 37° C. in 5% CO2/95% air atmosphere in defined medium. After the glutamate exposure, cultures were washed with DMEM at 37° C. then placed in fresh culture medium containing sarsasapogenin, smilagenin, vehicle or BDNF. After 48 h, the extent of motor neurone damage was determined as detailed above. This Example develops the work reported in Example 8 of PCT patent application No. WO-A-03/082893.

[5] = system: Rat spinal motor neurones; assay: Neuronal survival and neurite outgrowth in spinal motor neurones; assay type: cell-based; details: 1.85 nM, 3 days
Experimental: Rat spinal motor neurones were prepared according to a previously described method (Martinou et al, Neuron, 8, 737-744, 1992). Following 3 days of culturing with sarsasapogenin, smilagenin, vehicle (DMSO, 0.25%), Xaliproden, or BDNF, spinal cord motor neurones were washed twice in PBS, fixed in a cold solution of alcohol (95%) and acetic acid (5%) for 5 min and then rinsed 3 times in PBS. Neurones were stained using a monoclonal antibody anti β-tubulin and an anti mouse Immunoglobulin G. These antibodies stained neurone cell bodies (quantifying the neuroprotective effect) and neurites (quantifying the neurotrophic effect). The cell nuclei were stained by a fluorescent marker. After 1 h of incubation, cells were washed 3 times in PBS. […] A series of pictures were taken using a camera controlled by computer software. All the images were taken under the same conditions. Analyses of the number of cells labelled with anti β-tubulin antibodies and of the total number of cells (number of stained nuclei) were performed using LUCIA 6.0 software.

Rat cortical neurones [6] = assay: Neuritogenesis in cortical neurones; assay type: cell-based; details: 3 nM, 24 h
Experimental: Rat cortical neurones were cultured by modification of a previously described method (Singer, et al., Neuroscience Letters, 1996, 212, pp. 13-16). Cells were cultured with sarsasapogenin, smilagenin, vehicle (DMSO 0.25%), GDNF, BDNF or NGF for 24 h. For each group, 15 pictures showing neurones displaying neurites were selected at random in each field, and for each neurone the longest neurite was measured. The neurite number was measured by counting the number of neurones displaying neurites, the number of neurones not displaying neurites and the number of total neurones in each field. Six fields per well were examined.
The results are shown in Table 15 below, expressed as the number of neurones with neurites per field as a percentage of the total number of neurones per field.

For `Cc1ccc(O)c(O)c1` [4-Methylcatechol, reference compound], the “trkB mRNA, % increase above control” value (trkB mRNA; 1 h) was “No increase”, the “trkB mRNA, % increase above control” value (trkB mRNA; 3 h) was “No increase” and the “trkB mRNA, % increase above control” value (trkB mRNA; 6 h) was “No increase”. For the same molecule, the “BDNF mRNA, % increase above control” value (BDNF mRNA; 1 h) was “No increase”, the “BDNF mRNA, % increase above control” value (BDNF mRNA; 3 h) was “No increase” and the “BDNF mRNA, % increase above control” value (BDNF mRNA; 6 h) was 92%. For the same molecule, the “Degenerated fibres (% of control)” value (C57b1/6 RJ mice) was −7.48 ± 1.62 % of control.

In the case of `Cc1c(C)c2c(c(C)c1O)CC[C@@](C)(C(=O)N1CCN(c3ccc(N=C(N)c4cccs4)cc3)CC1)O2` [BN 80933], the “Increase of survival time / lifespan of pmn mice” value (pmn mice) is given as 40%.

For `C#CCN(C)CC1=Cc2ccccc2Oc2ccccc21.O=C(O)/C=C\C(=O)O` [CGP 3466B], the “Increase of survival time / lifespan of pmn mice” value (pmn mice) is given as 57%.

In the case of `COC(=O)[C@@]1(O)C[C@H]2O[C@]1(C)n1c3ccccc3c3c4c(c5c6ccccc6n2c5c31)C(=O)NC4` [K252a, reference compound], the “Neurite length (% of control)” value ([1]; K252a 100 nM alone (control with K252a)) is reported as 95.22 ± 3.10 % of control.

In the case of `COc1cccc(-c2cc(=O)c3ccccc3o2)c1N` [PD98059, reference compound], the “Neurite length (% of control)” value ([1]; PD98059 10 μM alone (control with PD98059)) is reported as 96.08 ± 2.47 % of control.

In the case of `C[C@@H]1CC[C@@]2(OC1)O[C@H]1C[C@H]3[C@@H]4CC=C5C[C@@H](O)CC[C@]5(C)[C@H]4CC[C@]3(C)[C@H]1[C@@H]2C` [diosgenin, reference compound], the “Neuronal survival (% of control)” value ([2]; 3 nM) is reported as 69.43 ± 1.76 % of control, the “Neuronal survival (% of control)” value ([2]; 10 nM) is reported as 66.51 ± 5.13 % of control and the “Neuronal survival (% of control)” value ([2]; 30 nM) is reported as 68.98 ± 5.39 % of control. The “Neuronal survival (% of control)” value ([2]; 100 nM) was 70.95 ± 5.03 % of control and the “Neuronal survival (% of control)” value ([2]; 300 nM) was 75.02 ± 2.68 % of control.

B1: BDNF: brain-derived neurotrophic factor (protein, UniProt P23560 19-247, looked up)
Neurotrophic factor BDNF …: APMKEANIRGQGGLAYPGVRTHGTLESVNGPKAGSRGLTSLADTFEHVIEELLDEDQKVRPNEENNKDADLYTSRVMLSSQVPLEPPLLFLLEEYKNYLDAANMSMRVRRHSDPARRGELSVCDSISEWVTAADKKTAVDMSGGTVTVLEKVPVSKGQLKQYFYETKCNPMGYTKEGCRGIDKRHWNSQCRTTQSYVRALTMDSKKRIGWRFIRIDTSCVCTLTIKRGR
With B1 the “Neurite outgrowth (% of control)” value (Rat cortical neurones [3]) was 146.84 ± 9.27 % of control, the “Neuronal survival (% of control)” value (Rat cortical neurones [3]) was 162.75 ± 5.61 % of control and the “Neuronal survival (% of control)” value [4] was 106.60 ± 6.14 % of control. The “Neurite length (% of control)” value ([1]; 1.85 nM, 24 h, no inhibitor) was 125.30 ± 5.80^++++ % of control, the “Neurite length (% of control)” value ([1]; 1.85 nM, 24 h, with K252a (100 nM)) was 87.31 ± 2.20 % of control and the “Neurite length (% of control)” value ([1]; 1.85 nM, 24 h, with PD98059 (10 μM)) was 99.07 ± 5.15 % of control. The “Neurite outgrowth (% of control)” value [5] was 176.91 ± 7.25 % of control, the “Neuronal survival (% of control)” value [5] was 126.15 ± 1.60 % of control and the “Neurite length (% of control)” value (Rat cortical neurones [6]) was 162.34 ± 5.91 % of control. For the same molecule, the “Neurones displaying neurites (%)” value (Rat cortical neurones [6]; control 39.35 ± 2.06) was 48.06 ± 2.17 %.

B2: CNTF: ciliary neurotrophic factor; i.p. administration of CNTF-secreting cells (protein, UniProt P26441 1-200, looked up)
Ciliary neurotrophic factor: MAFTEHSPLTPHRRDLCSRSIWLARKIRSDLTALTESYVKHQGLNKNINLDSADGMPVASTDQWSELTEAERLQENLQAYRTFHVLLARLLEDQQVHFTPTEGDFHQAIHTLLLQVAAFAYQIEELMILLEYKIPRNEADGMPINVGDGGLFEKKLWGLKVLQELSQWTVRSIHDLRFISSHQTGIPARGSHYIANNKKM
modifications: secreted by cells
In the case of B2, the “Increase of survival time / lifespan of pmn mice” value (pmn mice) is given as 40%.
